Experimental findings from paper PMC9319939, “Siccanin Is a Dual-Target Inhibitor of Plasmodium falciparum Mitochondrial Complex II and Complex III” (Pharmaceuticals, 2022) are described below.

pEC50, pIC50: −log10 of the molar value.

Experiment [1] relates to type-II NADH dehydrogenase (NDH2). Put plainly: NDH2 activity, crude mitochondrial fraction, NADH at 340 nm. The format is biochemical, Plasmodium falciparum. The protocol:
A synchronized parasite culture was grown for 64 h and a crude mitochondrial fraction was prepared from trophozoite-stage cells (as confirmed by Giemsa staining). Infected red blood cells were collected by centrifugation at 800× g for 5 min at 4 °C and incubated for 5 min at room temperature with 40 mL of 0.075% (w/v) saponin in AIM buffer (120 mM KCl, 20 mM NaCl, 10 mM PIPES (1,4-piperazinediethanesulfonic acid) buffer [pH 6.7], 1 mM MgCl2, 5 mM glucose). Released parasites were collected by centrifugation at 2780× g for 7 min at 4 °C and washed three times with AIM buffer. […]
Complex II, DHODH, MQO, NDH2, G3PDH, and dihydroorotate-cytochrome c (DHO-cyt c) reductase activities were measured, as described previously, using a V-660 spectrophotometer (JASCO; Tokyo, Japan). Briefly, complex II activity was measured at 25 °C in a 1 mL reaction mixture containing 45 μM 2,6-dichlorophenolidophenol (DCIP), 100 μM ubiquinone-2 (UQ2), and 2 mM KCN in 50 mM potassium phosphate buffer, pH 8.0. DHODH, MQO, and G3PDH activities were measured at 25 °C in 1 mL of the reaction mixture containing 45 μM DCIP, 100 μM UQ2, and 2 mM KCN in 30 mM Tris-HCl buffer, pH 8.0. […] NDH2 activity was measured at 25 °C in 1 mL of the reaction mixture containing 100 µM UQ1 and 2 mM KCN in 50 mM potassium phosphate buffer, pH 8.0. […]

In experiment [2] the target is T1, P. falciparum complex III (Plasmodium falciparum, UniProt Q02768).
T1 construct: used as crude mitochondrial fraction for all enzymatic assays; endogenous in cells; host or cells: P. falciparum 3D7 trophozoite-stage parasites, crude mitochondrial fraction
The experiment is described as follows: DHO-cytochrome c reductase activity (DHODH coupled to complex III). The format is biochemical. How it is done:
(§1) A synchronized parasite culture was grown for 64 h and a crude mitochondrial fraction was prepared from trophozoite-stage cells (as confirmed by Giemsa staining). Infected red blood cells were collected by centrifugation at 800× g for 5 min at 4 °C and incubated for 5 min at room temperature with 40 mL of 0.075% (w/v) saponin in AIM buffer (120 mM KCl, 20 mM NaCl, 10 mM PIPES (1,4-piperazinediethanesulfonic acid) buffer [pH 6.7], 1 mM MgCl2, 5 mM glucose). Released parasites were collected by centrifugation at 2780× g for 7 min at 4 °C and washed three times with AIM buffer. P. falciparum was suspended in MSE buffer [225 mM mannitol, 75 mM sucrose, 0.1 mM ethylenediaminetetraacetic acid (EDTA), 3 mM Tris-HCl buffer, pH 7.4] containing 1 mM phenylmethylsulphonyl fluoride, and disrupted by nitrogen cavitation at 1200 psi using a 4639 Cell Disruption Bomb (Parr Instrument Company; Moline, IL, USA). The unbroken cells and cell debris were removed by centrifugation at 800× g for 5 min at 4 °C. The supernatant was centrifuged at 5000× g for 20 min at 4 °C. The resulting pellet was suspended in 200–400 μL MSE buffer and used as crude mitochondrial fraction for all enzymatic assays, as described previously.
(§2) DHO-cyt c activity was measured at 25 °C in 1 mL of the reaction mixture containing 20 μM cytochrome c and 2 mM KCN in 30 mM Tris-HCl buffer, pH 8.0. The reduction of cytochrome c was monitored at 550 nm after initiation of the reaction by addition of 500 μM dihydroorotate. Various concentrations of siccanin (formulated in DMSO) were added to the reaction mixtures before the initiation of the reactions. In all assays, the final concentration of DMSO was fixed at 0.1% (v/v). IC50 values were calculated using Prism® ver.6.01.

Experiment [3] has as its system P. falciparum complex III. The experiment is described as above. The format is biochemical. The settings on record: ratio mammalian / P. falciparum IC50. How it is done: as §1, §2
For experiment [4], the system named is Dd2_DDD (eEF2-Y186N mutation). The experiment is described as follows: Growth inhibition of Dd2_DDD (DDD107498-resistant). The format is cell-based. The settings on record: Plasmodium falciparum, read-out: Growth inhibition EC50, DDD. How it is done: (§3) P. falciparum 3D7-yDHODH was prepared and maintained as described previously. P. falciparum Dd2, and Dd2-derived mutant strains were kindly provided by David A. Fidock, and maintained at Nagasaki University essentially as described in reference, except without supplementation with WR99210.
(§4) Synchronized ring-form parasites (0.3% parasitemia) were prepared in complete medium containing different concentration of various compounds (at a fixed final DMSO concentration of 0.1% (v/v)) and distributed to 96-well plates at 100 μL/well. After 72 h of incubation, parasite growth was monitored by the previously described lactate dehydrogenase (PfLDH)-based assay method; plates were read using a SpectraMax® Paradigm spectrophotometer (Molecular Devices, Inc.; San Jose, CA, USA). EC50 values were calculated using Prism® ver.6.01 (GraphPad; San Diego, CA, USA). Values are presented as the means of three independent experiments.

In experiment [5] the test system is Dd2_GNF (Carl-I1139K mutation). Put plainly: Growth inhibition of Dd2_GNF (GNF156-resistant). The format is cell-based. The conditions noted are these: Plasmodium falciparum, read-out: Growth inhibition EC50, GNF. The protocol: as §3, §4
Experiment [6] concerns Dd2_ELQ300 (cyt b-I22L mutation at Qi site). Put plainly: Growth inhibition of Dd2_ELQ300 (ELQ300-resistant). The format is cell-based. The settings on record: Plasmodium falciparum, read-out: Growth inhibition EC50, ELQ300. The protocol:
as §3, §4

Experiment [7] has as its system Dd2 and drug-resistant panel strains. Put plainly: Growth inhibition across Dd2 and drug-resistant panel strains. The format is cell-based. The settings on record: Plasmodium falciparum, DD2, read-out: EC50s for growth inhibition, range over strains. How it is done: as §3, §4
The next experiment relates to P. falciparum 3D7 strain. Put plainly: Isobologram analysis with atovaquone and siccanin, PfLDH-based. The format is cell-based, Plasmodium falciparum. How it is done:
The effect of the combination of atovaquone and siccanin was evaluated using isobologram analysis to evaluate the synergy, additivity, or antagonism between the two compounds [51, 83]. Synchronized ring-form parasites (0.3% parasitemia) were prepared in complete medium containing different concentrations of siccanin and atovaquone (at a fixed final DMSO concentration of 0.2% (v/v)) and distributed to 96-well plates at 100 μL/well. After 72 h of incubation, parasite growth was monitored by the previously described PfLDH-based assay using a SpectraMax® Paradigm spectrophotometer. IC50 values were calculated using Prism® ver.6.01. Data represent the means of three independent experiments, each performed in triplicate. The isobologram analysis was performed as described previously. For each combination assay, IC50s were calculated from each culture of P. falciparum grown in the presence of atovaquone or siccanin alone and in combination of various concentrations of the two compounds. The fractional inhibitory concentration (FIC) value was determined using the following equation: FIC =IC50 of compound in mixture/IC50 of compound alone
The combination index (CI) value was determined using the following equation: CI =IC50 of atovaquone in mixture/IC50 of atovaquone alone+IC50 of siccanin in mixture/IC50 of siccanin alone […]

T1 sequence (Q02768 whole entry, one chain of several): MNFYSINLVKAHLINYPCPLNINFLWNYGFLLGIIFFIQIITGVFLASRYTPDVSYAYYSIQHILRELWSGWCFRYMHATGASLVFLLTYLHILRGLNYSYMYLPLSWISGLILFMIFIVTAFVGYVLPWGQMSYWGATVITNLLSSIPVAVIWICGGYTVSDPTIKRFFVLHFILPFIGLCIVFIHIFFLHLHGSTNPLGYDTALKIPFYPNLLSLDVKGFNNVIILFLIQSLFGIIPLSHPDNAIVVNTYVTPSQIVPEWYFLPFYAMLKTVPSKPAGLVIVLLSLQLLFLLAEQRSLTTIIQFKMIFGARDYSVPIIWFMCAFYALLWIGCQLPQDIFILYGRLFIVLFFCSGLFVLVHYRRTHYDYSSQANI

Usually pIC50 stands for the negative decadic logarithm of the IC50, by convention in mol/L. On to `Cc1cc(O)c2c(c1)O[C@@]1(C)CC[C@H]3C(C)(C)CCC[C@]34CO[C@@H]2[C@H]41` [Siccanin], for which the “Effect on NDH2 activity” value in experiment [1] (10 µM) is reported as “did not inhibit”. Further, the “Relative residual activity of NDH2” value in experiment [1] (siccanin 10 μM) came to 101.8 ± 8.1%. For the same compound, the “Effect on DHO-cyt c activity” value in experiment [2] (60 μM) is recorded as “completely inhibits”. Also, the pIC50 in experiment [2] (P. falciparum crude mitochondrial fraction, read-out: Complex III (DHO-cyt c activity) IC50) is 5.08. Further, the “Selectivity, Complex III” value in experiment [3] is recorded as above 60. For the same compound, the pEC50 is 4.88 in experiment [4], 4.87 in experiment [5], 4.73 in experiment [6] and 4.73 to 4.91 in experiment [7]. Besides, in the experiment with P. falciparum 3D7 strain (combination of siccanin and atovaquone, 3D7, 72 h), the Combination index is listed as 1.0. Also, the “Combinatory effect with atovaquone” value in the experiment with P. falciparum 3D7 strain (isobologram, 3D7) is given as “additive effect”.
